In brackets after ≈: the same amount, converted by molar mass.
Experiments:
Staphylococcus aureus [1] = test: Antibacterial activity against Staphylococcus aureus Smith; type: functional
Acinetobacter baumannii = test: Antibacterial activity against Acinetobacter baumannii IID876; type: functional
Pseudomonas aeruginosa = test: Antibacterial activity against Pseudomonas aeruginosa PAO1; type: functional
Enterococcus faecium = test: Antibacterial activity against VanA-resistant Enterococcus faecium; type: functional
Escherichia coli = test: Antibacterial activity against Escherichia coli ATCC 25922; type: functional
Streptococcus pneumoniae = test: Antibacterial activity against Streptococcus pneumoniae IID553; type: functional
Staphylococcus aureus [2] = test: Antibacterial activity against Staphylococcus aureus Smith infected in iv dosed ICR mouse assessed as increase in survival rate administered at 1 hr post infection measured on day 7; type: functional
Staphylococcus aureus [3] = test: Antibacterial activity against Staphylococcus aureus Smith infected in po dosed ICR mouse assessed as increase in survival rate administered at 1 hr post infection measured on day 7; type: functional
Staphylococcus aureus [4] = test: Ratio of MIC for quinolone-resistant Staphylococcus aureus MS5935 to MIC for […]; type: functional
[5] = target: T1, Voltage-gated inwardly rectifying potassium channel KCNH2 (Homo sapiens, UniProt Q12809); test: Inhibition of MK499 binding to human ERG
T1 sequence (Q12809 whole entry): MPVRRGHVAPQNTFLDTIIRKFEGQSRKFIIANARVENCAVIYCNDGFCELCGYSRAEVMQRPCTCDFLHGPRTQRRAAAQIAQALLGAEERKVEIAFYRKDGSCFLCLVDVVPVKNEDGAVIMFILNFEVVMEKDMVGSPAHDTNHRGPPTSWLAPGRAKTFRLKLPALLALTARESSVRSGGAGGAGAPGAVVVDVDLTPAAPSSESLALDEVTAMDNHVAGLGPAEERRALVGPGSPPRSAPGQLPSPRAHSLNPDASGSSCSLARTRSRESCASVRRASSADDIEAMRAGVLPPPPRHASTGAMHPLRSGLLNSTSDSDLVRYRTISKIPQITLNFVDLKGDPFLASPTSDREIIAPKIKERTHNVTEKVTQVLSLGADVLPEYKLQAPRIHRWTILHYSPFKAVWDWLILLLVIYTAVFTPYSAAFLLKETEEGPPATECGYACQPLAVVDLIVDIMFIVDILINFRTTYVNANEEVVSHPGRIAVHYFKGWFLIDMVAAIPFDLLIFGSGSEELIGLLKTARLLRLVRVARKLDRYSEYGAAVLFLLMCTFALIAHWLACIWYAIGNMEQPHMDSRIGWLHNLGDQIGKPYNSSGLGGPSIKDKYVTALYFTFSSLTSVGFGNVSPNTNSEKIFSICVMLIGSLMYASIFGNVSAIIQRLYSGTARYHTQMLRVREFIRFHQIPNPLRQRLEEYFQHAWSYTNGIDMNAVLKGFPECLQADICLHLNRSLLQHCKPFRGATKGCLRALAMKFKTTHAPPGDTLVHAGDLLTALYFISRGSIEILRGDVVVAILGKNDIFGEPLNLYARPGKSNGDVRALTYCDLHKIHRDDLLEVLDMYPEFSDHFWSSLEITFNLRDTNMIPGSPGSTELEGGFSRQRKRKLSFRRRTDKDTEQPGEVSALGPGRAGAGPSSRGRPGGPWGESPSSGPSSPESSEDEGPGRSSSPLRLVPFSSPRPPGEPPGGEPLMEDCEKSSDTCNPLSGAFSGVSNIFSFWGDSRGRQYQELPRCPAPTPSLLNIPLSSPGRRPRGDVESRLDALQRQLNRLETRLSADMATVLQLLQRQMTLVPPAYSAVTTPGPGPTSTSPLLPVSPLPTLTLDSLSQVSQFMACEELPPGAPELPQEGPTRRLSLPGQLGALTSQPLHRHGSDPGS

[6] = target: T1, Voltage-gated inwardly rectifying potassium channel KCNH2; test: Inhibition of human ERG expressed in CHO cells measured for 5 mins by automated patch clamp assay
[7] = Staphylococcus aureus, Smith, read-out: MIC
[8] = Acinetobacter baumannii, IID876, read-out: MIC
[9] = Pseudomonas aeruginosa, PAO1, read-out: MIC
[10] = Enterococcus faecium, read-out: MIC
[11] = Escherichia coli, ATCC 25922, read-out: MIC
[12] = Streptococcus pneumoniae, IID553, read-out: MIC

| SMILES | MIC (Staphylococcus aureus [1]; [7]) [µg/mL] | MIC (Acinetobacter baumannii; [8]) [µg/mL] | MIC (Pseudomonas aeruginosa; [9]) [µg/mL] | MIC (Enterococcus faecium; [10]) [µg/mL] | MIC (Escherichia coli; [11]) [µg/mL] | MIC (Streptococcus pneumoniae; [12]) [µg/mL] | ED50 (Staphylococcus aureus [2]) [mg/kg] | ED50 (Staphylococcus aureus [3]) [mg/kg] | Ratio (Staphylococcus aureus [4]) | IC50 [5] [µM] | IC50 [6] [µM] | MIC (Staphylococcus aureus [1]) [µg/mL] | MIC (Streptococcus pneumoniae) [µg/mL] | MIC (Acinetobacter baumannii) [µg/mL] | MIC (Pseudomonas aeruginosa) [µg/mL] | MIC (Enterococcus faecium) [µg/mL] | MIC (Escherichia coli) [µg/mL] |
| --- | --- | --- | --- | --- | --- | --- | --- | --- | --- | --- | --- | --- | --- | --- | --- | --- | --- |
| COc1ccc2ncc(F)c(CCC34CCC(NCc5ccc6c(n5)NC(=O)CO6)(CC3)CO4)c2n1 | 0.02 (≈ 0.0405 µM) | 0.5 (≈ 1.01 µM) | 4 (≈ 8.1 µM) | 0.5 (≈ 1.01 µM) | 1 (≈ 2.03 µM) | 0.13 (≈ 0.263 µM) |  |  |  |  |  |  |  |  |  |  |  |
| COc1ccc2ncc(F)c(CCC34CCC(NCc5nc6c(cc5Cl)OCC(=O)N6)(CC3)CO4)c2n1 | 0.02 (≈ 0.0379 µM) | 1 (≈ 1.89 µM) | 2 (≈ 3.79 µM) | 1 (≈ 1.89 µM) | 2 (≈ 3.79 µM) | 0.25 (≈ 0.473 µM) |  |  |  |  |  |  |  |  |  |  |  |
| COc1ccc2ncc(F)c(CCC34CCC(NCc5nc6c(cc5F)OCC(=O)N6)(CC3)CO4)c2n1 | 0.02 (≈ 0.0391 µM) | 0.5 (≈ 0.977 µM) | 8 (≈ 15.6 µM) | 1 (≈ 1.95 µM) | 2 (≈ 3.91 µM) | 0.13 (≈ 0.254 µM) | 2.5 | 3.9 |  |  |  |  |  |  |  |  |  |
| COc1ccc2ncc(F)c(CCC34CCC(NCc5nc6c(cc5OC)OCC(=O)N6)(CC3)CO4)c2n1 | 4 (≈ 7.64 µM) | 8 (≈ 15.3 µM) | 8 (≈ 15.3 µM) | 8 (≈ 15.3 µM) | 8 (≈ 15.3 µM) | 8 (≈ 15.3 µM) |  |  | <4 |  |  |  |  |  |  |  |  |
| COc1ccc2ncc(F)c(CCC34CCC(NCc5nc6c(cc5C)OCC(=O)N6)(CC3)CO4)c2n1 | 0.06 (≈ 0.118 µM) | 0.5 (≈ 0.985 µM) | 8 (≈ 15.8 µM) | 1 (≈ 1.97 µM) | 2 (≈ 3.94 µM) | 1 (≈ 1.97 µM) |  |  |  |  |  |  |  |  |  |  |  |
| COc1ccc2ncc(F)c(CCC34CCC(NCc5cc(C)c6c(n5)NC(=O)CO6)(CC3)CO4)c2n1 | 0.5 (≈ 0.985 µM) | 4 (≈ 7.88 µM) | 32 (≈ 63 µM) | 8 (≈ 15.8 µM) | 8 (≈ 15.8 µM) | 4 (≈ 7.88 µM) |  |  |  |  |  |  |  |  |  |  |  |
| COc1ccc2ncc(F)c(CCC34CCC(NCc5nc6c(c(C)c5C)OCC(=O)N6)(CC3)CO4)c2n1 | 1.06 (≈ 2.03 µM) | 4 (≈ 7.67 µM) | 16 (≈ 30.7 µM) | 2 (≈ 3.83 µM) | 2 (≈ 3.83 µM) | 8 (≈ 15.3 µM) |  |  |  |  |  |  |  |  |  |  |  |
| CCc1c(CNC23CCC(CCc4c(F)cnc5ccc(OC)nc45)(CC2)OC3)nc2c(c1C)OCC(=O)N2 | 2 (≈ 3.73 µM) | 32 (≈ 59.7 µM) | 32 (≈ 59.7 µM) | 32 (≈ 59.7 µM) | 32 (≈ 59.7 µM) | 32 (≈ 59.7 µM) |  |  |  |  |  |  |  |  |  |  |  |
| COc1ccc2ncc(F)c(CCC34CCC(NCc5nc6c(c(C)c5C(C)C)OCC(=O)N6)(CC3)CO4)c2n1 | 32 (≈ 58.2 µM) | 32 (≈ 58.2 µM) | 32 (≈ 58.2 µM) | 32 (≈ 58.2 µM) | 32 (≈ 58.2 µM) | 32 (≈ 58.2 µM) |  |  |  |  |  |  |  |  |  |  |  |
| C=Cc1c(CNC23CCC(CCc4c(F)cnc5ccc(OC)nc45)(CC2)OC3)nc2c(c1C)OCC(=O)N2 | 0.25 (≈ 0.469 µM) | 32 (≈ 60 µM) | 32 (≈ 60 µM) | 32 (≈ 60 µM) | 32 (≈ 60 µM) | 8 (≈ 15 µM) |  |  |  |  |  |  |  |  |  |  |  |
| COc1ccc2ncc(F)c(CCC34CCC(NCc5nc6c(c(C)c5F)OCC(=O)N6)(CC3)CO4)c2n1 | 0.5 (≈ 0.951 µM) | 32 (≈ 60.9 µM) | 32 (≈ 60.9 µM) | 32 (≈ 60.9 µM) | 32 (≈ 60.9 µM) | 4 (≈ 7.61 µM) |  |  |  |  |  |  |  |  |  |  |  |
| COc1ccc2ncc(F)c(CCC34CCC(NCc5ccc6c(n5)NC(=O)C(C)(C)O6)(CC3)CO4)c2n1 | 0.25 (≈ 0.479 µM) | 2 (≈ 3.83 µM) | 2 (≈ 3.83 µM) | 2 (≈ 3.83 µM) | 2 (≈ 3.83 µM) | 1 (≈ 1.92 µM) |  |  | <4 | 3 |  |  |  |  |  |  |  |
| COc1ccc2ncc(F)c(CCC34CCC(NCc5ccc6c(n5)N(C)C(=O)CO6)(CC3)CO4)c2n1 | 2 (≈ 3.94 µM) | 16 (≈ 31.5 µM) | 16 (≈ 31.5 µM) | 16 (≈ 31.5 µM) | 16 (≈ 31.5 µM) | 2 (≈ 3.94 µM) |  |  |  |  |  |  |  |  |  |  |  |
| COc1ccc2ncc(F)c(CCC34CCC(N(C)Cc5ccc6c(n5)NC(=O)CO6)(CC3)CO4)c2n1 | 0.13 (≈ 0.256 µM) | 8 (≈ 15.8 µM) | 32 (≈ 63 µM) | 8 (≈ 15.8 µM) | 16 (≈ 31.5 µM) | 2 (≈ 3.94 µM) |  |  | <4 | 1.2 |  |  |  |  |  |  |  |
| COC(=O)N(Cc1ccc2c(n1)NC(=O)CO2)C12CCC(CCc3c(F)cnc4ccc(OC)nc34)(CC1)OC2 | 16 (≈ 29 µM) | 64 (≈ 116 µM) | 64 (≈ 116 µM) | 64 (≈ 116 µM) | 64 (≈ 116 µM) | 64 (≈ 116 µM) |  |  |  |  |  |  |  |  |  |  |  |
| COc1ccc2ncc(F)c(CCC34CCC(NC(=O)c5ccc6c(n5)NC(=O)CO6)(CC3)CO4)c2n1 | 0.02 (≈ 0.0394 µM) | 8 (≈ 15.8 µM) | 8 (≈ 15.8 µM) | 1 (≈ 1.97 µM) | 8 (≈ 15.8 µM) | 0.5 (≈ 0.985 µM) |  |  |  |  |  |  |  |  |  |  |  |
| COc1ccc2ncc(F)c(CCC34CCC(N(C)C(=O)c5ccc6c(n5)NC(=O)CO6)(CC3)CO4)c2n1 | 0.03 (≈ 0.0575 µM) | 4 (≈ 7.67 µM) | 4 (≈ 7.67 µM) | 4 (≈ 7.67 µM) | 4 (≈ 7.67 µM) | 4 (≈ 7.67 µM) |  |  | <4 | > 60 | > 30 |  |  |  |  |  |  |
| COc1ccc2ncc(F)c(C[C@H](O)C3CCC(NCc4nc5c(cc4F)OCC(=O)N5)CO3)c2n1 (stereo not given in full) | 0.03 (≈ 0.0598 µM) | 1 (≈ 1.99 µM) | 16 (≈ 31.9 µM) | 2 (≈ 3.99 µM) | 4 (≈ 7.98 µM) | 0.25 (≈ 0.499 µM) | 3.2 | 6.7 |  |  |  |  |  |  |  |  |  |
| COc1ccc2ncc(F)c(C[C@H](O)C3CCC(NCc4nc5c(cc4OC)OCC(=O)N5)CO3)c2n1 (stereo not given in full) | 16 (≈ 31.2 µM) | 16 (≈ 31.2 µM) | 16 (≈ 31.2 µM) | 16 (≈ 31.2 µM) | 16 (≈ 31.2 µM) | 16 (≈ 31.2 µM) |  |  | <4 |  |  |  |  |  |  |  |  |
| COc1ccc2ncc(F)c(C[C@H](O)C3CCC(NCc4ccc5c(n4)NC(=O)CO5)CO3)c2n1 (stereo not given in full) | 0.03 (≈ 0.062 µM) | 2 (≈ 4.14 µM) | 32 (≈ 66.2 µM) | 2 (≈ 4.14 µM) | 16 (≈ 33.1 µM) | 2 (≈ 4.14 µM) |  |  | <4 |  |  |  |  |  |  |  |  |
| COc1ccc2ncc(F)c(CCC34CCC(NCc5ccc6c(n5)NC(=O)C(C)O6)(CC3)CO4)c2n1 (single isomer, unassigned; (+)) |  | 2 (≈ 3.94 µM) | 2 (≈ 3.94 µM) | 2 (≈ 3.94 µM) | 2 (≈ 3.94 µM) | 0.25 (≈ 0.493 µM) |  |  |  |  |  | 0.25 (≈ 0.493 µM) |  |  |  |  |  |
| CCOC(=O)C1(C)Oc2ccc(CNC34CCC(CCc5c(F)cnc6ccc(OC)nc56)(CC3)OC4)nc2NC1=O (single isomer, unassigned; (+)) | 16 (≈ 27.6 µM) | 16 (≈ 27.6 µM) | 16 (≈ 27.6 µM) | 16 (≈ 27.6 µM) | 16 (≈ 27.6 µM) |  |  |  |  |  |  |  | 16 (≈ 27.6 µM) |  |  |  |  |
| COc1ccc2ncc(F)c(CCC34CCC(NCc5ccc6c(n5)NC(=O)C(C)O6)(CC3)CO4)c2n1 (single isomer, unassigned; (-)) |  |  |  |  |  |  | 14 | 28 |  |  |  | 0.06 (≈ 0.118 µM) | 0.25 (≈ 0.493 µM) | 1 (≈ 1.97 µM) | 2 (≈ 3.94 µM) | 2 (≈ 3.94 µM) | 2 (≈ 3.94 µM) |
| CCOC(=O)C1(C)Oc2ccc(CNC34CCC(CCc5c(F)cnc6ccc(OC)nc56)(CC3)OC4)nc2NC1=O (single isomer, unassigned; (-)) |  |  |  |  |  | 8 (≈ 13.8 µM) |  |  |  |  |  | 8 (≈ 13.8 µM) |  | 8 (≈ 13.8 µM) | 8 (≈ 13.8 µM) | 8 (≈ 13.8 µM) | 8 (≈ 13.8 µM) |

From ChEMBL document CHEMBL3603741, “Structure activity relationship of pyridoxazinone substituted RHS analogs of oxabicyclooctane-linked 1,5-naphthyridinyl novel bacterial topoisomerase inhibitors as broad-spectrum antibacterial agents (Part-6)” (Bioorg Med Chem Lett, 2015)
